From paper PMC12337661, “PIEZO1 mechanical insensitivity in generalized lymphatic dysplasia with the potential for pharmacological rescue” (iScience, 2025)

Target: T1, WT mPIEZO1 (Mus musculus, UniProt E2JF22)
T1 construct: expressed in transfected cells
Assay: Long substance exposure and hypo-osmolality protocol Ca2+ assay
Format: cell-based
Conditions: 10 µM
Description: For intracellular Ca^2+ assays, cells were plated at 80–90% confluence in 96-well plates 24 h prior to recordings (6–8 × 10^4 cells per well). […] Cells were washed with SBS and incubated at room temperature for 20 min prior to recordings. Equal volumes of 2x concentrated compounds were injected to test for acute channel activation. Pre-incubation with compounds occurred during the 20 min prior to recordings. To expose cell membranes to hypo-osmolality, an equal volume of hypotonic SBS (containing only 35 mM NaCl) was injected onto the cells. Measurements were made on a fluorescence plate reader (Flexstation III, Molecular Devices) at room temperature (21 ± 2°C). Fura-2 was excited at 340 nm and 380 nm and emitted light collected at 510 nm, with measurements shown as the change in fluorescence (F) ratio (ΔF340/380).
SI Figure S5: Hypo-osm ol al it y test in the Ca2+ assay, referred to in the main paper
(a) Typical 96-well plate mean ± s.e.m. data for changes in intracellular Ca2+ evoked by hypotonic (35 mM NaCl) or normotonic (135 mM NaCl) medium for WT- or Empty vector-transfected cells in increasing concentrations of Yoda1 as indicated and colour -coded on t he right (representative of n = 3-6 independent experiments). […]

T1 sequence (E2JF22 whole entry): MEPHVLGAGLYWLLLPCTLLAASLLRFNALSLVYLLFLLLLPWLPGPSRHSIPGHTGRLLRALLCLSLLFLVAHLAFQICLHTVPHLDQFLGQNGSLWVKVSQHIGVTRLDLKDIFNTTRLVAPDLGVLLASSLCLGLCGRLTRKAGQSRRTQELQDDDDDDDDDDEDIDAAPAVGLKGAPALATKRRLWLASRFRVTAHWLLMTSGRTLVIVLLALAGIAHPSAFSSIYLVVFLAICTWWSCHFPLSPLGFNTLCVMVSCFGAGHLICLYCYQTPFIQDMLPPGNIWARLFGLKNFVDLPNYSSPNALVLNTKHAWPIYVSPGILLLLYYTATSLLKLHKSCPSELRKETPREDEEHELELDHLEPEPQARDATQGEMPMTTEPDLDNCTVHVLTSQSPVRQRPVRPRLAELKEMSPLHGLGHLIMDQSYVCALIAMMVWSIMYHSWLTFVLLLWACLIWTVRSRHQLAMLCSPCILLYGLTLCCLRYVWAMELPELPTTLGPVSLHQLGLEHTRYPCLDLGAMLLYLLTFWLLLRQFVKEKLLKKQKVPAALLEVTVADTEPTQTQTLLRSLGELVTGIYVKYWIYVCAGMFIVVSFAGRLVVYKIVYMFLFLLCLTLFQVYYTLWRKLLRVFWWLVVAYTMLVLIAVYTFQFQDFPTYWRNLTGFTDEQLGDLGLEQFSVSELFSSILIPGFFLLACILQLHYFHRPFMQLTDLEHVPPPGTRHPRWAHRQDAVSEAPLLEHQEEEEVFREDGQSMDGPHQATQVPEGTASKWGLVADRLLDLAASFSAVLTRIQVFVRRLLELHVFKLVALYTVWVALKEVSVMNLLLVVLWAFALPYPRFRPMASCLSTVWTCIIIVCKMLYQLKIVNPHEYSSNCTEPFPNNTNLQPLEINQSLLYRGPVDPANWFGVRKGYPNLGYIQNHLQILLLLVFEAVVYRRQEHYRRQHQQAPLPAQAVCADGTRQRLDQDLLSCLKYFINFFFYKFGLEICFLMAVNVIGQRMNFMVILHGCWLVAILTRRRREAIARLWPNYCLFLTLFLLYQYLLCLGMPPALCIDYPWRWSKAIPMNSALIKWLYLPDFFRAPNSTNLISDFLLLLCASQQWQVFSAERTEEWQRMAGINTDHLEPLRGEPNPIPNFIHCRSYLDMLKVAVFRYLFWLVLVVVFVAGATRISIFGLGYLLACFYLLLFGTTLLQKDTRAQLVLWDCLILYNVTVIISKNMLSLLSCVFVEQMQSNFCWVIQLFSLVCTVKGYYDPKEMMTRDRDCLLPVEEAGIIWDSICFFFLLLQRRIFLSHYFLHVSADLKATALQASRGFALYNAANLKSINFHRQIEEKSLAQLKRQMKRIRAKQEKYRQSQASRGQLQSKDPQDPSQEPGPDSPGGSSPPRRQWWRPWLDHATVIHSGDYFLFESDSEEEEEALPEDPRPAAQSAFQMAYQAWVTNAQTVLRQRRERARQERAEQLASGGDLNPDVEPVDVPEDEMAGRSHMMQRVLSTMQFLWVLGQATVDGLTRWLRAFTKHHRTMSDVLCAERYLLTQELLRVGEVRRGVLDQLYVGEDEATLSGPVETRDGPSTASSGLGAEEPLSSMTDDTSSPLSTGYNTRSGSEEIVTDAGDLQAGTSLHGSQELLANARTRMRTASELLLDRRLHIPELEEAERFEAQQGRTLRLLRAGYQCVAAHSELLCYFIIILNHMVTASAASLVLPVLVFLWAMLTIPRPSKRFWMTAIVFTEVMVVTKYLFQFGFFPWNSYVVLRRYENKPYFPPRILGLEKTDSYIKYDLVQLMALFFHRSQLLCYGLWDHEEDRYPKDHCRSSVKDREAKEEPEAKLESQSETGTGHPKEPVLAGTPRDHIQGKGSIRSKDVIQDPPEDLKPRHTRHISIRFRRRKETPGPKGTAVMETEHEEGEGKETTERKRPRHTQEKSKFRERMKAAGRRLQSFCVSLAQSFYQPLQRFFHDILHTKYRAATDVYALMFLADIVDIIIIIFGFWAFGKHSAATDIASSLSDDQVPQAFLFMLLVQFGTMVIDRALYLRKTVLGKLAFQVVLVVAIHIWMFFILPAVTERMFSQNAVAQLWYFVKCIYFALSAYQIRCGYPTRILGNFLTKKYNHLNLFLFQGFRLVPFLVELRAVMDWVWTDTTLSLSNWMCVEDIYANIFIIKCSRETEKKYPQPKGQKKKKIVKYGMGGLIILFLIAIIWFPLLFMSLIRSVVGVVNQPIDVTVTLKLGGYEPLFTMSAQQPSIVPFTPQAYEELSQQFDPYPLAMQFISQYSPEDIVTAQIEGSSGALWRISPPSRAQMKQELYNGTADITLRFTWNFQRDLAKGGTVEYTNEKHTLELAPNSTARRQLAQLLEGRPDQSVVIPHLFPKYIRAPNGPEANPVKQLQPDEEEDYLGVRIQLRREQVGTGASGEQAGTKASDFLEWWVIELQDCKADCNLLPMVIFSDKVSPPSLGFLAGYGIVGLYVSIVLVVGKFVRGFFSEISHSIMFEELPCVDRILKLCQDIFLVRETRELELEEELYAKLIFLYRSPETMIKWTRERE

assay interference: caused a fluorescence artefact
Structure (SMILES): Nc1ccc(-c2nnc(SCc3c(Cl)cccc3Cl)s2)cc1 [KC146, 4-(5-((2,6-dichlorobenzyl)thio)-1,3,4-thiadiazol-2-yl)aniline]
